For 3 molecules, IC50 results are on record in BindingDB's records for doi:10.1021/jm0009437 (Institut Curie, 2000).

As a reminder, the IC50 is the concentration at which inhibition is half-maximal. A lower IC50 goes with greater potency.

In this experiment the target is T1, Gag-Pol polyprotein [588-1027]/[588-1147] (Human immunodeficiency virus 1, UniProt P04585).
T1 construct: 588-1027; 588-1147
Nature of the experiment: HIV-1 RT Assay. To be noted: pH 8; 37 °C.
On to `CCc1c(C)[nH]c(=O)c([N+](=O)[O-])c1Sc1cc(C)cc(C)c1` [4-[(3,5-dimethylphenyl)sulfanyl]-5-ethyl-6-methyl-3-nitro-1,2-dihydropyridin-2-one], for which the IC50 is 30 nM.

`CCc1c(C)nc(O)c(N)c1C(=O)c1cc(C)cc(C)c1` [3-amino-4-[(3,5-dimethylphenyl)carbonyl]-5-ethyl-6-methyl-1,2-dihydropyridin-2-one]: half-maximal inhibition (IC50) was put at 100 nM.

With `CCc1c(C)nc(O)c(N)c1Cc1cc(C)cc(C)c1` [3-amino-4-[(3,5-dimethylphenyl)methyl]-5-ethyl-6-methyl-1,2-dihydropyridin-2-one], the IC50 stood at 100 nM.
